What was measured:
Conditions in all cases: incubation time: 72 h
BT-549 [1] = experiment: normalised response (% of control), CellTox Green; higher = less cell death (100 = DMSO, 0 = benzethonium chloride kill control)
Procedure, shortened: (§1)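 Compound was dispensed into 384-well plates at 5 concentrations in 10-fold steps spanning a 10,000-fold range specific to that compound. Breast cancer cell lines were added as 20 µl suspension and left for 72 h before CellTox Green fluorescence (485/520 nm) and then CellTiter-Glo luminescence, read after 10 min at room temperature. Each reported value is the normalised signal at one concentration, with 0.1 % DMSO set at 100 and a positive kill control at 0 on each plate.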

CAL-51 [2] = experiment: as above
Procedure, shortened: as §1

BT-474 [3] = experiment: as above
Procedure, shortened: as §1

MFM-223 [4] = experiment: as above
Procedure, shortened: as §1

CAL-85-1 [5] = experiment: as above
Procedure, shortened: as §1

Hs578T [6] = experiment: as above
Procedure, shortened: as §1

MDA-MB-468 [7] = experiment: as above
Procedure, shortened: as §1

HCC1143 [8] = experiment: as above
Procedure, shortened: as §1

MDA-MB-453 [9] = experiment: as above
Procedure, shortened: as §1

HCC1937 [10] = experiment: as above
Procedure, shortened: as §1

CAL-120 [11] = experiment: as above
Procedure, shortened: as §1

CAL-148 [12] = experiment: as above
Procedure, shortened: as §1

MDA-MB-436 [13] = experiment: as above
Procedure, shortened: as §1

MCF-10A [14] = experiment: as above
Procedure, shortened: as §1

HCC1599 [15] = experiment: as above
Procedure, shortened: as §1

MDA-MB-231 [16] = experiment: as above
Procedure, shortened: as §1

DU-4475 [17] = experiment: as above
Procedure, shortened: as §1

HDQ-P1 [18] = experiment: as above
Procedure, shortened: as §1

BT-549 [19] = experiment: normalised response (% of control), CellTiter-Glo; higher = more viable cells (100 = DMSO, 0 = benzethonium chloride kill control)
Experimental: (§2)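 DSRT, 72 h incubation, CellTox Green / CellTiter-Glo readout. Signal is normalised to DMSO and benzethonium chloride controls. Value is the normalised response at dose 3.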

CAL-51 [20] = experiment: as above
Experimental: as §2

BT-474 [21] = experiment: as above
Experimental: as §2

MFM-223 [22] = experiment: as above
Experimental: as §2

CAL-85-1 [23] = experiment: as above
Experimental: as §2

Hs578T [24] = experiment: as above
Experimental: as §2

MDA-MB-468 [25] = experiment: as above
Experimental: as §2

HCC1143 [26] = experiment: as above
Experimental: as §2

MDA-MB-453 [27] = experiment: as above
Experimental: as §2

HCC1937 [28] = experiment: as above
Experimental: as §2

CAL-120 [29] = experiment: as above
Experimental: as §2

CAL-148 [30] = experiment: as above
Experimental: as §2

SK-BR-3 = experiment: as above
Experimental: as §2

MDA-MB-436 [31] = experiment: as above
Experimental: as §2

MCF-10A [32] = experiment: as above
Experimental: as §2

HCC1599 [33] = experiment: as above
Experimental: as §2

MDA-MB-231 [34] = experiment: as above
Experimental: as §2

DU-4475 [35] = experiment: as above
Experimental: as §2

HDQ-P1 [36] = experiment: as above
Experimental: as §2

Compound | normalised response (BT-549 [1]) | normalised response (CAL-51 [2]) | normalised response (BT-474 [3]) | normalised response (MFM-223 [4]) | normalised response (CAL-85-1 [5]) | normalised response (Hs578T [6]) | normalised response (MDA-MB-468 [7]) | normalised response (HCC1143 [8]) | normalised response (MDA-MB-453 [9]) | normalised response (HCC1937 [10]) | normalised response (CAL-120 [11]) | normalised response (CAL-148 [12]) | normalised response (MDA-MB-436 [13]) | normalised response (MCF-10A [14]) | normalised response (HCC1599 [15]) | normalised response (MDA-MB-231 [16]) | normalised response (DU-4475 [17]) | normalised response (HDQ-P1 [18]) | normalised response (BT-549 [19]) | normalised response (CAL-51 [20]) | normalised response (BT-474 [21]) | normalised response (MFM-223 [22]) | normalised response (CAL-85-1 [23]) | normalised response (Hs578T [24]) | normalised response (MDA-MB-468 [25]) | normalised response (HCC1143 [26]) | normalised response (MDA-MB-453 [27]) | normalised response (HCC1937 [28]) | normalised response (CAL-120 [29]) | normalised response (CAL-148 [30]) | normalised response (SK-BR-3) | normalised response (MDA-MB-436 [31]) | normalised response (MCF-10A [32]) | normalised response (HCC1599 [33]) | normalised response (MDA-MB-231 [34]) | normalised response (DU-4475 [35]) | normalised response (HDQ-P1 [36])
CC(C)C[C@H](NC(=O)[C@H](Cc1ccccc1)NC(=O)c1cnccn1)B(O)O [Bortezomib] (10 nM) | 97.2% | 110% | 92% | 82% | 16.3% | 71% | -99.2% | 105% | 109% | 61.9% | 88% | 87.2% | 72.3% | 74.6% | 101% | 70.5% | 111% | 75.7% | 10.1% | 96.8% | 44.5% | 17.6% | 12.3% | 66% | 2.63% | 74.7% | 69.2% | 64.8% | 74.6% | 98.8% | 30% | 35.6% | 113% | 89.7% | 69.3% | 88.6% | 61.7%
CS(=O)(=O)OCCCCOS(C)(=O)=O [Busulfan] (1000 nM) | 96.5% | 109% | 100% | 102% | 101% | 105% | 121% | 97.8% | 103% | 107% | 97.8% | 96.1% | 90.6% | 59.8% | 103% | 104% | 101% | 83.3% | 109% | 90.4% | 98.9% | 106% | 104% | 108% | 97.2% | 105% | 111% | 96.2% | 102% | 107% | 110% | 94.2% | 108% | 98.9% | 105% | 108% | 103%
COc1cccc2c1C(=O)c1c(O)c3c(c(O)c1C2=O)C[C@@](O)(C(C)=O)C[C@@H]3O[C@H]1C[C@H](N)[C@H](O)[C@H](C)O1 [Daunorubicin] (10 nM) | 104% | 91.5% | 102% | 105% | 98.8% | 111% | 90.3% | 104% | 107% | 106% | 102% | 91.5% | 93.4% | 104% | 98.9% | 76% | 103% | 106% | 103% | 87.2% | 102% | 105% | 100% | 104% | 84.2% | 97% | 110% | 93.2% | 103% | 99.3% | 112% | 99.4% | 105% | 99.1% | 103% | 106% | 96.5%
CN1CCN(c2ccc3nc(-c4c(N)c5c(F)cccc5[nH]c4=O)[nH]c3c2)CC1 [Dovitinib] (100 nM) | 95.3% | 107% | 96.5% | 105% | 90.3% | 93.3% | 87.8% | 97.1% | 101% | 89.1% | 96% | 85.1% | 72.4% | 102% | 108% | 89.5% | 100% | 115% | 103% | 107% | 104% | 100% | 94.7% | 101% | 97.3% | 103% | 100% | 94.8% | 93.9% | 99.7% | 94.7% | 96.5% | 99.1% | 94.2% | 92.4% | 97.1% | 97.3%
O=c1[nH]cc(F)c(=O)[nH]1 [Fluorouracil] (100 nM) | 96.8% | 113% | 93% | 106% | 114% | 101% | 99.4% | 92.6% | 106% | 103% | 100% | 102% | 51.5% | 114% | 103% | 111% | 106% | 105% | 109% | 105% | 103% | 104% | 98.3% | 105% | 98% | 109% | 116% | 95.6% | 107% | 111% | 104% | 105% | 113% | 116% | 111% | 102% | 102%
Cn1cnc2c(F)c(Nc3ccc(Br)cc3F)c(C(=O)NOCCO)cc21 [MEK-162] (10 nM) | 82.7% | 112% | 90.8% | 102% | 99.8% | 108% | 125% | 73% | 104% | 78.5% | 97.6% | 103% | 99.8% | 68.5% | 93% | 81.9% | 97.6% | 102% | 94.5% | 114% | 103% | 99.4% | 95.2% | 90.5% | 93% | 94.8% | 105% | 90.8% | 97.9% | 101% | 101% | 103% | 70.8% | 93.8% | 99.3% | 92.9% | 88.9%
CCOc1cc2ncc(C#N)c(Nc3ccc(OCc4ccccn4)c(Cl)c3)c2cc1NC(=O)/C=C/CN(C)C [Neratinib] (10 nM) | 111% | 110% | 93.4% | 94.8% | 112% | 88.5% | 126% | 103% | 108% | 102% | 104% | 104% | 54.2% | 116% | 104% | 120% | 108% | 98.1% | 97.9% | 91.5% | 101% | 101% | 102% | 99.2% | 91.7% | 97.3% | 78.3% | 95.1% | 104% | 101% | 37.4% | 99.7% | 98.1% | 112% | 100% | 105% | 83.5%
COc1ccc(C2=N[C@@H](c3ccc(Cl)cc3)[C@@H](c3ccc(Cl)cc3)N2C(=O)N2CCNC(=O)C2)c(OC(C)C)c1 [Nutlin-3] (100 nM) | 99% | 97.1% | 71.6% | 95.2% | 102% | 101% | 100% | 109% | 97.3% | 87.5% | 102% | 97.2% | 64% | 103% | 102% | 100% | 102% | 97.3% | 107% | 64% | 101% | 102% | 92.4% | 103% | 100% | 105% | 108% | 95.4% | 99.5% | 115% | 104% | 102% | 96.7% | 105% | 102% | 104% | 99.9%

From the supplement of paper PMC4862054
